In patent publication US20260216348A1, “IRAK DEGRADATION AGENT AND USE THEREOF” (Increland, priority 2023, published 2026):

Key:
[1] = Metabolic stability in human liver microsome; format: in vitro ADME; settings: liver microsomes, NADPH, 60 min, read-out: Human liver microsome (t1/2, min)
Method: Clean incubation plates T60 and NCF60 were preheated at 37° C. for 10 min. Liver microsomes were diluted to a concentration of 0.56 mg/mL with 100 mM phosphate buffer, and 445 μL of the microsome working solution (0.56 mg/mL) was transferred to the preheated incubation plates T60 and NCF60, followed by incubation of the plates T60 and NCF60 with continuous shaking at 37° C. for 10 min. After incubation, 54 μL of liver microsomes were transferred to a blank plate, 6 μL of NAPDH cofactor was added to the blank plate, and then 180 μL of quenching solution was added to the blank plate. 5 μL of the compound working solution (100 μM) was added to the microsome-containing incubation plates T60 and NCF60, and mixed thoroughly 3 times. For plate NCF60, 50 μL of buffer was added and the system was mixed thoroughly 3 times before timing was started, and the plate was incubated with shaking at 37° C. for 60 min. For the quenching plate, 180 μL of quenching solution and 6 μL of NADPH cofactor were added, and the plate was ensured to be cooled to prevent evaporation. For the T60 plate, the mixture was thoroughly mixed 3 times, and 54 μL of the mixture was immediately transferred to the quenching plate at the time point of 0 min. Then 44 μL of the NAPDH cofactor was added to the incubation plate (T60). Timing was started, and the plate was incubated with shaking at 37° C. for 60 min. At the time points of 5, 15, 30, 45, and 60 min, 180 μL of the quenching solution was added to the quenching plate respectively, mixed once, and 60 μL of sample was continuously transferred from the plate T60 to the quenching plate at each time point. For plate NCF60, after mixing once, 60 μL of the sample was transferred from incubation plate NCF60 to the quenching plate containing quenching solution at the 60-min time point. All sampling plates were shaken for 10 min, then centrifuged at 4000 rpm at 4° C. for 20 min. 80 μL of the supernatant was transferred to 240 μL of HPLC water, and mixed using a plate shaker for 10 min. Each bioanalytical plate was sealed and shaken for 10 min before LC-MS/MS analysis.

IRAK4 = biological target: T1, IRAK4 (Homo sapiens, UniProt Q9NWZ3); test: IRAK4 protein degradation in THP1 cells (Western blot); format: cell-based; settings: THP-1 cells, 24 h
T1 construct: Effect of the Compounds on IRAK4 Protein Degradation in THP1 Cells; endogenous in cells; host or cells: THP-1 cells
T1 sequence (Q9NWZ3 1-460): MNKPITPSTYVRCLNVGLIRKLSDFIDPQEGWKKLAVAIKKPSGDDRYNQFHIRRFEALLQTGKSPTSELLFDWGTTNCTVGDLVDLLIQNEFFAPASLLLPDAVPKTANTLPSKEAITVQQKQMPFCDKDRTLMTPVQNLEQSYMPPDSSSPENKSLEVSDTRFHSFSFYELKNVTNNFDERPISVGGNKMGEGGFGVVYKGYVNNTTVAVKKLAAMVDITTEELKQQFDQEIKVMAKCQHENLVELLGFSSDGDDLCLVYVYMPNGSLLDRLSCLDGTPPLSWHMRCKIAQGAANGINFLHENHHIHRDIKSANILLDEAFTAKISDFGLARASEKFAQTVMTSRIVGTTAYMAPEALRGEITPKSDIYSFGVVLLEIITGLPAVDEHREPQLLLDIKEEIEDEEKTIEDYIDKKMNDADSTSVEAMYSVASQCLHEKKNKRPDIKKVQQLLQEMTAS
Procedure, shortened: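 THP-1 cells (2×10^5/well) were treated with 5-fold serial compound dilutions for 24 h at 37 °C, then lysed with proteasome/phosphatase inhibitors. IRAK4 was detected by Western blot with chemiluminescence and semi-quantified by densitometry. DC50 came from the concentration–response.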

[2] = system: DSS-induced enteritis model; test: DSS-induced enteritis (colitis) model; format: in vivo, mice; settings: po, QD, Model 10.33 ± 1.11, Mean ± SD, n = 7
From the text: The experimental mice were pre-acclimatized in the animal facility for one week; at the beginning of the experiment, the mice were given medication intragastrically daily according to their body weight. After the completion of intragastric administration in each group, mice had direct access to water bottles for free drinking. The blank group received normal water, while the other groups received pre-prepared DSS water. Each afternoon, the mice's abdomens were massaged to stimulate defecation, and one fecal pellet was collected onto a white porcelain plate. Fecal consistency was judged and recorded according to Table 30. The fecal occult blood qualitative test kit (Yuanye Biotechnology, #R24187-300T) was used to test for occult blood in feces and the results were interpreted according to Table 31.

Row | SMILES | half-life at 1 µM [1] | DC50 (IRAK4) | DAI Score d 8 ([2]; 3 mpk) | DAI Score d 8 ([2]; 10 mpk) | DAI Score d 8 ([2]; 30 mpk)
1 | CN(C)c1cc2nn([C@H]3CC[C@H](CN4C[C@@H](F)[C@H](n5cc6cc(C7CCC(=O)NC7=O)ccc6n5)C4)CC3)cc2cc1NC(=O)c1cnn2cccnc12 (some centres unmarked) [TM-244] | 79.5 min | 3.21 nM |  |  | 
2 | CN(C)c1cc2nn([C@H]3CC[C@H](CN4C[C@@H](F)[C@@H](n5cc6cc(C7CCC(=O)NC7=O)c(F)cc6n5)C4)CC3)cc2cc1NC(=O)c1cnn2cccnc12 (some centres unmarked) [TM-240] | 98.6 min | 2.61 nM |  |  | 
3 | CN(C)c1cc2nn([C@H]3CC[C@H](CN4C[C@@H](n5cc6cc(N7CCC(=O)NC7=O)ccc6n5)[C@@H](F)C4)CC3)cc2cc1NC(=O)c1cnn2cccnc12 [TM-205] |  | 1.56 nM | 4.86 ± 1.55 | 3.29 ± 1.67 | 2.71 ± 0.70
4 | CN(C)c1cc2nn([C@H]3CC[C@H](CN4CCC(n5cc6c(F)cc(N7CCC(=O)NC7=O)cc6n5)CC4)CC3)cc2cc1NC(=O)c1cnn2cccnc12 [TM-174] |  | 1.24 nM | 3.57 ± 2.26 | 2.71 ± 1.39 | 2.71 ± 0.70
5 | CN(C)c1cc2nn([C@H]3CC[C@H](CN4C[C@H](F)[C@@H](n5cc6cc(C7CCC(=O)NC7=O)c(F)cc6n5)C4)CC3)cc2cc1NC(=O)c1cnn2cccnc12 (some centres unmarked) [TM-249] | 139 min | 2.38 nM |  |  | 
6 | CN(C)c1cc2nn([C@H]3CC[C@H](CN4C[C@@H](F)[C@H](n5cc6cc(C7CCC(=O)NC7=O)c(F)cc6n5)C4)CC3)cc2cc1NC(=O)c1cnn2cccnc12 (some centres unmarked) [TM-245] | 87.4 min | 1.41 nM |  |  | 
7 | CN(C)c1cc2nn([C@H]3CC[C@H](CN4C[C@@H](n5cc6cc(C7CCC(=O)NC7=O)c(F)cc6n5)[C@@H](F)C4)CC3)cc2cc1NC(=O)c1cnn2cccnc12 (some centres unmarked) [TM-241] | 106 min | 11.7 nM |  |  | 
8 | CN(C)c1cc2nn([C@H]3CC[C@H](CN4CC[C@@H](n5cc6cc(C7CCC(=O)NC7=O)c(F)cc6n5)[C@@H](F)C4)CC3)cc2cc1NC(=O)c1cnn2cccnc12 (some centres unmarked) [TM-135] | 65 min | 1.23 nM |  |  | 
